Assay results from patent US20230149355A1, “COMPOSITIONS AND METHODS FOR MODULATING TRP CHANNEL ACTIVITY” (priority 2020, published 2023).

Experiments:
human ileum = test: Amperometric measurement of 5-HT secretion, human small intestine; conditions: 10 mM Indole
Text: These experiments using C57BL/6J mice were approved by the Flinders University Animal Welfare Committee (number 965-19) and human ileum tissue was collected from resected small and large intestine from patients that gave written informed consent under the approval of the Southern Adelaide Clinical Human Research Ethics Committee (number 50.07) as previous (Sun et al., 2019a). Mice were euthanized at 8 to 12 weeks by isoflurane overdose followed by cervical dislocation. The duodenum was removed and placed in Krebs solution oxygenated with 95% O2, 5% CO2. A midline incision was made along the duodenum to create a flat sheet, the section was pinned with the mucosal side up in an organ bath lined with Sylgard and containing oxygenated Krebs solution. Serotonin release was measured using amperometry. A carbon-fibre electrode (5-μm diameter, ProCFE; Dagan Corporation, Minneapolis, Minn.), was lowered above the mucosa and 400 mV potential was applied to the electrode causing oxidation of serotonin (Zelkas et al., 2015). […] The change in amplitude due to serotonin oxidation was recorded using an EPC-10 amplifier and Pulse software (HEKA Electronic, Lambrecht/Pfalz, Germany), and samples at 10 kHz and low-pass filtered at 1 kHz. Data was assessed as peak current during each treatment. Data was analyzed comparing all groups using one-way ANOVA with Tukey's post-hoc test. […]

zebrafish EECs (Trpa1) = test: In vivo EEC calcium, Tg(neurod1:Gcamp6f) zebrafish; conditions: trpa1b-dependent
Method: To record in vivo EEC activity using the Tg(neurod1:Gcamp6f) system, a published protocol with slight modification (Ye et al., 2019) was used. In brief, unanesthetized zebrafish larvae were gently mounted in 3% methylcellulose. Excess water was removed and zebrafish larvae were gently positioned with right side up. Zebrafish were then moved onto an upright Leica M205 FA fluorescence stereomicroscope equipped with a Leica DFC 365FX camera. The zebrafish larvae were allowed to recover for 2 mins before 100 μL of test agent was pipetted directly in front of the mouth region. Images were then recorded every 10 seconds. The data shown in FIG. 2O-R, depicting the EEC responses to E. tarda stimulation, were obtained by mounting unanesthetized zebrafish larvae in 1% low melting agarose. A window (5×5 mm) was cut to expose the head region of the zebrafish. 10 μL of E. tarda culture [˜10^9 Colony Forming Unit (CFU)] were delivered at the zebrafish mouth area. Images were recorded every 10 secs for 20 mins. Image processing and analysis were performed using FIJI software. Time-lapse fluorescence images were first aligned to correct for experimental drift using the plugin “align slices in stack.” Normalized correlation coefficient matching and bilinear interpolation methods for subpixel translation were used for aligning slices (Tseng et al., 2012). The plugin “rolling ball background subtraction” with the rolling ball radius=10 pixels was used to remove the large spatial variation of background intensities. The Gcamp6f fluorescence intensity in the intestinal region was then calculated for each time point. The ratio of maximum fluorescence (Fmax) and the initial fluorescence (F0) was used to measure EEC calcium responses.
For EEC Trpa1 activation using the Optovin platform, zebrafish larvae were treated with 10 μM Optovin overnight. Following Optovin treatment, unanesthetized zebrafish were mounted in 1% LMA and imaged under a 780 upright Zeiss confocal microscope using 20× water objective lenses. For all the experiments, the mid-intestine region was imaged (FIG. 10D). The intestinal epithelium was selected as the region of interest (ROI) (FIG. 10A). Serial images were obtained at 1 s/frame. A 405 nm pulse of light was applied to the ROI at 1 pulse/10 s. For some experiments (FIG. 7D-F, FIG. 10B-G), the images were obtained at 10 s/frame. When measuring Optovin effects on intestinal motility in ret−/−, sox10−/− or tph1b−/− zebrafish larvae, embryos were collected from heterozygous zebrafish. ret−/− zebrafish were identified by lack of ENS and deflated swim bladder (Knight et al., 2011), sox10−/− zebrafish were identified by lack of pigment (Rolig et al., 2017), and tph1b−/− zebrafish were identified by PCR-based genotyping (Tornini et al., 2017).
To determine whether Optovin-UV or ChR2 was sufficient to activate EECs, Tg(neurod1:Gcamp6f) zebrafish were used. […] The Gcamp6f signal was recorded with 488 nm laser intensity less than 0.5. The zebrafish intestinal motility is quantified through recorded image series of zebrafish intestine using the method similar as previously described (Ganz et al., 2018). […] When calculating the mean velocity, only the mean velocity magnitude was calculated, which therefore doesn't account for the movement direction. The MTrackJ FIJI plugin was used to quantify the mean velocity magnitude (Meijering et al., 2012).

`c1ccc2[nH]ccc2c1` [Indole] was tested, and the “5-HT secretion in human ileum” value (human ileum) was “significant increase” and the “Zebrafish EEC activation (Gcamp6f fluorescence)” value (zebrafish EECs (Trpa1)) was “strongly activated”.
